We go through one molecule from PMC8746953, “Caseinolytic Proteins (Clp) in the Genus Klebsiella: Special Focus on ClpK” (Molecules, 2021).

The target of this assay is T1, ClpK (Klebsiella pneumoniae, UniProt E0W6V3).
T1 construct: full-length codon-optimised gene in pColdI (BamH1/SalH1), His-tagged, expressed in E. coli BL21; oligomer not measured
Nature of the assay: fluorescence emission of mant-nucleotide (excitation […] nm). In kind it is binding. The note with it: 2 uM ClpK, 10 uM mant-ATP; 10 mM sodium phosphate pH 7.4, 20 °C; labelled compound.

T1 sequence (E0W6V3 entry or part of it): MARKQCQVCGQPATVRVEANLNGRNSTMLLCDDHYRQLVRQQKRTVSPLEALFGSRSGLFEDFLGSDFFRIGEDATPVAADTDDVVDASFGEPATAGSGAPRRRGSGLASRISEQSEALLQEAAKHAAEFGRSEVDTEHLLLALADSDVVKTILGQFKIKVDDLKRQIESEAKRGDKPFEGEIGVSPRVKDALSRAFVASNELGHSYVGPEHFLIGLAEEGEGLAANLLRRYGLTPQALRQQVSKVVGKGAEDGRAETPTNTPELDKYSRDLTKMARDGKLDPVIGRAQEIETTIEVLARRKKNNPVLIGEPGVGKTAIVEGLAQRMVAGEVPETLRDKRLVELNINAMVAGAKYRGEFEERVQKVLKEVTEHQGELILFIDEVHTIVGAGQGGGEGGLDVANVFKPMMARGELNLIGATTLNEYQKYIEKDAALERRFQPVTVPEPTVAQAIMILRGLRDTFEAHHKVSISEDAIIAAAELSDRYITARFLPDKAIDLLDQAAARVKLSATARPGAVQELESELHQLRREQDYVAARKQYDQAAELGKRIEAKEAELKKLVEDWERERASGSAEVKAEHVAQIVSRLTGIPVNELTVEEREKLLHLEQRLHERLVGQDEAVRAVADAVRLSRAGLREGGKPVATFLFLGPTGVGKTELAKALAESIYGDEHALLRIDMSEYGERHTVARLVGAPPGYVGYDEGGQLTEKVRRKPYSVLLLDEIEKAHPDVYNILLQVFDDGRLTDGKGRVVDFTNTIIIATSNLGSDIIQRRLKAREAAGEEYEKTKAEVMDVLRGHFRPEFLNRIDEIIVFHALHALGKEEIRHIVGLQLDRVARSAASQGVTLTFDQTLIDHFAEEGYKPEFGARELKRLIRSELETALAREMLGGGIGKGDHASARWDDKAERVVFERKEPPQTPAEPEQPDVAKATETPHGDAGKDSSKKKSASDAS

As for `CNc1ccccc1C(=O)O[C@H]1[C@@H](O)[C@H](n2cnc3c(N)ncnc32)O[C@@H]1COP(=O)(O)OP(=O)(O)OP(=O)(O)O` [mant-ATP], the “fluorescence emission of mant-nucleotide (excitation 355 nm)” value is given as “The spectrum indicates binding of mant-ATP as indicated by an increase in the fluorescence quantum yield”.
